According to patent US20210206758A1, “NAPHTHYRIDINES AS INTEGRIN ANTAGONISTS” (GlaxoSmithKline Intellectual Property Development Limited, priority 2016, published 2021):

Columns and labels:
Type in all cases: cell-based
αvβ5 = target: T1, αvβ5 (Homo sapiens, UniProt P06756+P18084); assay: Cell adhesion assay, K562-αvβ5 (Vitronectin); details: K562-αvβ5 cells, ligand Vitronectin, 2 mM MgCl2; mean; read-out: αvβ5 pIC50 (mean affinity, cell Adhesion Assay) (converted)
T1 construct: expressed in transfected cells; host or cells: K562
Experimental: (§1) Reagents and methods utilised are as described [Ludbrook et al, Biochem. J. 2003, 369, 311 and Macdonald et al. ACS Med. Chem. Lett. 2014, 5, 1207-1212 for αvβ8 assay), with the following points of clarification. The following cell lines are used, with ligands in brackets: K562-αvβ3 (LAP-b1), K562-αvβ5 (Vitronectin), K562-αvβ6 (LAP-b1), K562-αvβ8 (LAP-b1), A549-αvβ1 (LAP-b1). The divalent cation used to facilitate adhesion is 2 mM MgCl2. Adhesion is quantified by cell labelling with the fluorescent dye BCECF-AM (Life Technologies), where cell suspensions at 3×10^6 cells/mL are incubated with 0.33 uL/mL of 30 mM BCECF-AM at 37° C. for 10 minutes, then 50 μL/well are dispensed into the 96-well assay plate. At the assay conclusion cells that adhered are lysed using 50 μL/well of 0.5% Triton X-100 in H2O to release fluorescence. Fluorescence intensity is detected using an Envision® plate reader (Perkin Elmer). For active antagonists in the assay, data is fitted to a 4 parameter logistic equation for IC50 determinations.

αvβ6 = target: T2, αvβ6 (Homo sapiens, UniProt P06756+P18564); assay: Cell adhesion assay, K562-αvβ6 (LAP-b1); details: K562-αvβ6 cells, ligand LAP-b1, 2 mM MgCl2; mean; read-out: αvβ6 pIC50 (mean affinity, cell Adhesion Assay) (converted)
T2 construct: expressed in transfected cells; host or cells: K562
Experimental: as §1

αvβ3 = target: T3, αvβ3 (Homo sapiens, UniProt P05106+P06756); assay: Cell adhesion assay, K562-αvβ3 (LAP-b1); details: K562-αvβ3 cells, ligand LAP-b1, 2 mM MgCl2; mean; read-out: αvβ3 pIC50 (mean affinity, cell Adhesion Assay) (converted)
T3 construct: expressed in transfected cells; host or cells: K562
Experimental: as §1

αvβ1 = target: T4, αvβ1 (Homo sapiens, UniProt P05556+P06756); assay: Cell adhesion assay, A549-αvβ1 (LAP-b1); details: A549-αvβ1 cells, ligand LAP-b1, 2 mM MgCl2; mean; read-out: αvβ1 pIC50 (mean affinity, cell Adhesion Assay) (converted)
T4 construct: host or cells: A549
Experimental: as §1

αvβ8 = target: T5, αvβ8 (Homo sapiens, UniProt P06756+P26012); assay: Cell adhesion assay, K562-αvβ8 (LAP-b1); details: K562-αvβ8 cells, ligand LAP-b1, 2 mM MgCl2; mean; read-out: αvβ8 pIC50 (mean affinity, cell Adhesion Assay) (converted)
T5 construct: expressed in transfected cells; host or cells: K562
Experimental: as §1

T2 sequence (P06756 31-889 limits assumed): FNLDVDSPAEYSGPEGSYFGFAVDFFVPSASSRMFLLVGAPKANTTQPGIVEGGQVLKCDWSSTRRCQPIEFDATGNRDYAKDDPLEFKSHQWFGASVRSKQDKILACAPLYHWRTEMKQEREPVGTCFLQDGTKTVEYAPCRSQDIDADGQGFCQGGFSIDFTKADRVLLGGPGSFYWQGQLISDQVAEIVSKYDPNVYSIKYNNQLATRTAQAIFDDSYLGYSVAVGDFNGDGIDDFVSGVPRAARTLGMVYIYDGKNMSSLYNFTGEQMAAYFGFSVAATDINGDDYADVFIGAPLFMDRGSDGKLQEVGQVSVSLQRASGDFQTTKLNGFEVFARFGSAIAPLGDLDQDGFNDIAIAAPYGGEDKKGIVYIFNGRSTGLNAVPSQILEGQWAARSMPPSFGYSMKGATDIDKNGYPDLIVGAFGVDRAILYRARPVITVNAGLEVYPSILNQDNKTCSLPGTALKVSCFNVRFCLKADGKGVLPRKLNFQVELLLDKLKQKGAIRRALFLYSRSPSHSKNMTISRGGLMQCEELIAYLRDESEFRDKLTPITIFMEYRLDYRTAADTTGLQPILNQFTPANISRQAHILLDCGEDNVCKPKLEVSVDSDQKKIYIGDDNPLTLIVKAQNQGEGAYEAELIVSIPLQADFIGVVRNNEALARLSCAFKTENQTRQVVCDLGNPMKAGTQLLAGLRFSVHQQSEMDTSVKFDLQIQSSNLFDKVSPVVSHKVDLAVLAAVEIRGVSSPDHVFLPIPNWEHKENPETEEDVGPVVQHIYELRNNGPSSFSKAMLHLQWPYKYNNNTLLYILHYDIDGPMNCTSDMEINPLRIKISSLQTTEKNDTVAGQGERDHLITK
T2 sequence (P06756 891-1048 partner limits assumed): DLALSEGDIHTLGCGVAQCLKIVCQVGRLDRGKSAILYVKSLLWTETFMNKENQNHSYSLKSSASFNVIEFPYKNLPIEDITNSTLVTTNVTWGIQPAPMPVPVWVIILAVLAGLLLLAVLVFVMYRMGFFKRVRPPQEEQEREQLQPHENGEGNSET
T2 sequence (P18564 22-788): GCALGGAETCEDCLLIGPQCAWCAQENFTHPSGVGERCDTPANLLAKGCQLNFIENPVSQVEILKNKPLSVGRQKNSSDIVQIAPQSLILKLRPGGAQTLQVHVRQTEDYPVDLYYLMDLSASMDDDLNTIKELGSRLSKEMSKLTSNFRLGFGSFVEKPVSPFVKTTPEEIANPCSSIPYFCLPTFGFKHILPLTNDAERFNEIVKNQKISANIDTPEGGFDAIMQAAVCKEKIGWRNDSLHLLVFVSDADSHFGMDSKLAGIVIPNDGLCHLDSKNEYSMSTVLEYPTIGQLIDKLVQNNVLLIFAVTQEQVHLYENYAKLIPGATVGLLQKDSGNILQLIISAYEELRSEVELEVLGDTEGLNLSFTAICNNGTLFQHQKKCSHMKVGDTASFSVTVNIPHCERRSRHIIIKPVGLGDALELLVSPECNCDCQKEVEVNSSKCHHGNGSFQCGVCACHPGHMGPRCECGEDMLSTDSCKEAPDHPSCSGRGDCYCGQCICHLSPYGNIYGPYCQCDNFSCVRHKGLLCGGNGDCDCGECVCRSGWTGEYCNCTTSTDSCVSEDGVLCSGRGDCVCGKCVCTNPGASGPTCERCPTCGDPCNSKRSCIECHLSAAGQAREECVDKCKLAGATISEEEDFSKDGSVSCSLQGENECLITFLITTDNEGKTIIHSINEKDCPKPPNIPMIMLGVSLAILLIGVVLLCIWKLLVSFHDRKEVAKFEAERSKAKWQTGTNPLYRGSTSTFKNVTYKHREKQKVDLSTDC
T1 sequence (P06756 31-889 limits assumed): as the sequence (P06756 31-889 limits assumed) above
T1 sequence (P06756 891-1048 partner limits assumed): as the sequence (P06756 891-1048 partner limits assumed) above
T1 sequence (P18084 24-799): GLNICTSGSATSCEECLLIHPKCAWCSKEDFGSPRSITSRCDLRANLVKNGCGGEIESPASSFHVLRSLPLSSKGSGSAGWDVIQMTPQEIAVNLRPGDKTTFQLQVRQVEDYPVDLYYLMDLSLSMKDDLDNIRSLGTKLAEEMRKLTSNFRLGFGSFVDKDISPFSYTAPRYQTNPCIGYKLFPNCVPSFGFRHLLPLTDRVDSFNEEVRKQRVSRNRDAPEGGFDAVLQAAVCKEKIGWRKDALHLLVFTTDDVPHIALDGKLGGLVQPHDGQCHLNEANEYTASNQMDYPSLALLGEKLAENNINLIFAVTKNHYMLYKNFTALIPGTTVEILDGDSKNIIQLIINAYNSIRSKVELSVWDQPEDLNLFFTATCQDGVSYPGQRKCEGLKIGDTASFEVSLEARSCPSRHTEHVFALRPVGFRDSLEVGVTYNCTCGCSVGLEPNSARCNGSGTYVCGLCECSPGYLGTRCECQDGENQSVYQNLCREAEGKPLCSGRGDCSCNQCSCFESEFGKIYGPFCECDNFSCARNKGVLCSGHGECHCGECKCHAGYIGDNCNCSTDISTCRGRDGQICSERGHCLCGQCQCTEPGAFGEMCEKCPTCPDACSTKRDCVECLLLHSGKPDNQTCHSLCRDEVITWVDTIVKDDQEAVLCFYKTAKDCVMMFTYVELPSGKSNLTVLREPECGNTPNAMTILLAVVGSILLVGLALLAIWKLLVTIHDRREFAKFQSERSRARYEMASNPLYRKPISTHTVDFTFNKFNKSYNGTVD
T4 sequence (P06756 31-889 limits assumed): as the sequence (P06756 31-889 limits assumed) above
T4 sequence (P06756 891-1048 partner limits assumed): as the sequence (P06756 891-1048 partner limits assumed) above
T4 sequence (P05556 21-798): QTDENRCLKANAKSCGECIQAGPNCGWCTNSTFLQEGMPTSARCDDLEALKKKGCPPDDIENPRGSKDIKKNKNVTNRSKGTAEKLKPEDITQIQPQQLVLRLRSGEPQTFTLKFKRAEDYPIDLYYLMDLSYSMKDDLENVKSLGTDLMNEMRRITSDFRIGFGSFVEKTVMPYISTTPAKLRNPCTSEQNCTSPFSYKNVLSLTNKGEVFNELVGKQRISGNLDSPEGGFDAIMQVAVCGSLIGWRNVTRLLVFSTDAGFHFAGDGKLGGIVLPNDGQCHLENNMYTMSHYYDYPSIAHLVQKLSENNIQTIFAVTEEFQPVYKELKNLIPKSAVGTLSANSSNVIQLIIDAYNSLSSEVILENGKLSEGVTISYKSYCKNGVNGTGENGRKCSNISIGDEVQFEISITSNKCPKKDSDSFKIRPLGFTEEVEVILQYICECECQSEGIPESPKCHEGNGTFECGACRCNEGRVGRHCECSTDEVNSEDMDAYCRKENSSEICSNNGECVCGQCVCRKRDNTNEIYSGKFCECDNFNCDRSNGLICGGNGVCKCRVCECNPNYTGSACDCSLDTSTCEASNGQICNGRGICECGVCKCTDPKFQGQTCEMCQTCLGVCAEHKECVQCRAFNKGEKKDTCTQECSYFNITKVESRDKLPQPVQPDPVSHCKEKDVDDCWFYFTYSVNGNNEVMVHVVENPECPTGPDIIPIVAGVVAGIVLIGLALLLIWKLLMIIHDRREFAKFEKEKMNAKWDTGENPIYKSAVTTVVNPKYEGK
T5 sequence (P06756 31-889 limits assumed): as the sequence (P06756 31-889 limits assumed) above
T5 sequence (P06756 891-1048 partner limits assumed): as the sequence (P06756 891-1048 partner limits assumed) above
T5 sequence (P26012 43-769): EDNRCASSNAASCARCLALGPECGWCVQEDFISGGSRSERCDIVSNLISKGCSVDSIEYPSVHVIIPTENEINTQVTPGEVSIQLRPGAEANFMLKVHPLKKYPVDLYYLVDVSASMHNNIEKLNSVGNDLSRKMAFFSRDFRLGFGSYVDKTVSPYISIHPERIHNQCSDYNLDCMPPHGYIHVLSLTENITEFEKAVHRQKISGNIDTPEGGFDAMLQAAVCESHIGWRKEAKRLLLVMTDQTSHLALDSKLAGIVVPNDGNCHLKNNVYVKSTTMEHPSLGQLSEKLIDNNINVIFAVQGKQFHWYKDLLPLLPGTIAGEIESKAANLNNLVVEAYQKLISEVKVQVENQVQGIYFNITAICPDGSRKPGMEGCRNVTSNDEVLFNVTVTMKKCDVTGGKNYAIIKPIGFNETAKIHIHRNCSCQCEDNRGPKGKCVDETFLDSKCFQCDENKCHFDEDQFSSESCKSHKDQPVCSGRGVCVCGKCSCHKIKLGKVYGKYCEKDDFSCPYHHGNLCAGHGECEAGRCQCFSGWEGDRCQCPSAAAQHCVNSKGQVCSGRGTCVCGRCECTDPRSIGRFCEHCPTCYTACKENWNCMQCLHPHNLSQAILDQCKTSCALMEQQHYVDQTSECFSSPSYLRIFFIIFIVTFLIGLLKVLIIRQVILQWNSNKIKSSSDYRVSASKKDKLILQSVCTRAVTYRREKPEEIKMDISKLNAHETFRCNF

IC50 (αvβ5): 100 nM
IC50 (αvβ6): 10 nM
IC50 (αvβ3): 79.4 nM
IC50 (αvβ1): 126 nM
IC50 (αvβ8): 31.6 nM
Structure (SMILES): COCCOc1cc(OCCF)cc(C(CC(=O)O)CN2CC[C@@](F)(CCc3ccc4c(n3)NCCC4)C2)c1 (stereo partly drawn) [Example 13, 4-((S)-3-Fluoro-3-(2-(5,6,7,8-tetrahydro-1,8-naphthyridin-2-yl)ethyl)pyrrolidin-1-yl)-3-(3-(2-fluoroethoxy)-5-(2-methoxyethoxy)phenyl)butanoic acid]
